From patent publication US6410249B1, “Odorant receptors” (priority 1999, dated 2002) come the findings set out here.

Entries after “also recorded” stand apart in the source; their conditions may differ. Like-named read-outs stand apart in the source and are kept apart here.

Assay [1] addresses T1, receptor 5.24 (Carassius auratus, UniProt Q9PW88).
T1 construct: The receptor 5.24 full length cDNA detects 1-2 bands in genomic DNA blots; expressed in transfected cells; host or cells: HEK 293 cells expressing SV40 large T antigen (293-TSA)
T1 sequence (Q9PW88 25-877): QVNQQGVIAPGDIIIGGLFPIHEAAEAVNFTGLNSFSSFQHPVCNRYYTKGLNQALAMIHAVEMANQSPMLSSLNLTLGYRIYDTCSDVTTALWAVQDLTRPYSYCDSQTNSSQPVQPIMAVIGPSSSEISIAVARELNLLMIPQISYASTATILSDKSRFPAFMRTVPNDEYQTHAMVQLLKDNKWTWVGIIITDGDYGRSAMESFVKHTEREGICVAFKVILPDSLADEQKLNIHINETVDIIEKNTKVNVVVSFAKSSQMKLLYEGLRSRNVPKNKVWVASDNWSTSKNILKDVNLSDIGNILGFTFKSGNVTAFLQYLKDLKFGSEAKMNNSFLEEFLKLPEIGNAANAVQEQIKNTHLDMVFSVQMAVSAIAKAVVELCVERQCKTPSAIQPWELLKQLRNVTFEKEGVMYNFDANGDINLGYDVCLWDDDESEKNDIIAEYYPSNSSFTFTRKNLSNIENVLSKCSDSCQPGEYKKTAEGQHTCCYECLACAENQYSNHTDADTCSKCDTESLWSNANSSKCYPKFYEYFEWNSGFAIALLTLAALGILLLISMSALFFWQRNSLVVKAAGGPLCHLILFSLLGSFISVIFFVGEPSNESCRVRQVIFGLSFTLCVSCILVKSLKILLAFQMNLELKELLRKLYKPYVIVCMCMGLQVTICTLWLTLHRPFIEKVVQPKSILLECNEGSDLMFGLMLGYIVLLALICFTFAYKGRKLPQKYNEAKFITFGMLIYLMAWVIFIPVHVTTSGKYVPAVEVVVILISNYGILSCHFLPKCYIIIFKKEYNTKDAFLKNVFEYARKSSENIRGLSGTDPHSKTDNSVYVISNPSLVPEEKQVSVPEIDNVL
The assay can be described thus: biochemical. In kind it is binding. As to conditions: for binding to receptor 5.24, in words: comparative binding studies. How it is done: Structure-Activity Properties of Compounds Interacting with the Cloned Goldfish Amino Acid Odorant Receptor. An understanding of how odorant receptors are used to encode olfactory information requires a characterization of the odorant specificities of individual receptor types. We therefore wished to determine the relative specificity of receptor 5.24 for structurally related ligands. […] Briefly, 3H-arginine binding to membranes from receptor 5.24-expressing HEK 293 cells was assayed in the absence or presence of varying concentrations of competitor ligands.
Mammalian Cell Culture and DNA Transfections. For cell transfections, the receptor 5.24 cDNA insert was subcloned into two expression vectors: CMVI, which utilizes a human cytomegalovirus (CMV) immediate early promoter-enhancer plus the CMV intron A sequence to drive expression, and 608RX-2.2L, which is similar to CMVI except the cDNA insert is followed by an internal ribosome entry site (IRES)—enhanced green fluorescent protein (EGFP) coding sequence; 608RX-2.2L also contains a puromycin resistance gene. For transient assays, HEK 293 cells expressing the SV40 large T antigen (293 TSA cells) were transfected with the CMVI-receptor 5.24 or CMVI control plasmid using lipofectamine (Life Technologies) and harvested at 48 hours for membrane preparations. For stable cell lines, 293-TSA cells were transfected with the 608RX-2.2L-receptor 5.24 plasmid or a control 608RX-2.2L plasmid and selected in puromycin. Colonies showing high levels of EGFP fluorescence (as judged by epifluorescence microscopy) were picked, expanded, and screened for 3H-L-arginine binding (see below).
Membrane Preparations and Ligand Binding Assays. Membranes for ligand binding assays were prepared by washing confluent cells three times with phosphate buffered saline (PBS), detaching cells with a PBS-based enzyme-free dissociation solution, and resuspending cells in ice-cold 5.0 mM Hepes, pH 7.4, 1.0 mM EDTA, 1.0 μg/ml leupeptin, 0.5 mM PMSF. All subsequent manipulations were performed on ice. After a 30 min incubation, the cell suspension was homogenized and centrifuged at 100,000×g for 30 min. Cell membrane pellets were washed twice by resuspension and centrifugation in binding buffer (20 mM Hepes, pH 7.4, 1.0 mM EDTA, 2.0 mM MgCl2, 1.0 μg/ml leupeptin, 0.5 mM PMSF), resuspended in binding buffer, and frozen at −80° C.
Saturation binding assays were performed using 20-25 μg of membrane protein in a final volume of 100 μl binding buffer and increasing concentrations of [2,3-3H] L-arginine (specific activity=40 Ci/mmol; Dupont NEN). Non-specific binding was measured in the presence of 500 μM unlabeled L-arginine. Competition assays were performed with 500 nM [2,3-3H] L-arginine and increasing concentrations of competitor ligands. All incubations were performed at 4° C. for 60 min and terminated by rapid filtration through Whatman GF/C filters pretreated with ice cold 0.1% polyethyleneimine. Filters were washed three times with 4.0 ml ice cold 20 mM Hepes, pH 7.4, and retained radioactivity was measured by scintillation counting.

In assay [2] the target is T1, receptor 5.24. The assay can be described thus: evoked currents in Xenopus oocytes expressing receptor 5.24 (two-electrode voltage clamp). In kind it is cell-based, goldfish. The source says:
Identification by Expression Cloning of a cDNA Encoding a Goldfish Odorant Receptor. RNA was synthesized from pools of goldfish olfactory cDNA clones (900 individual clones per pool) and injected into Xenopus oocytes together with synthetic RNAs encoding GIRK and Gaolf. Oocytes were then screened for responses upon exposure to odorant cocktails containing amino acids, bile acids, or sex pheromones. […] The response to amino acids was biphasic, beginning with an oscillating inward current above the basal inward K+ current, followed by a decline in inward current to below the basal level. Such a biphasic effect is thought to be caused by Gaq-mediated activation of phospholipase C (responsible for the intial inward current via IP3) and protein kinase C (leading to suppression of the K+ current through phosphorylation of GIRK channel subunits) (Sharon et al., 1997).
Iterative subdivision of pool 19 by sib-selection allowed the isolation of a single clone encoding a receptor, designated receptor 5.24.
Oocytes were removed from anesthetized Xenopus laevis and treated with collagenase. Forty nanograms of cRNA from each cDNA library pool (˜40 pg cRNA/clone) was injected per oocyte, together with cRNAs encoding Gaolf and the GIRK subunits Kir 3.1 and Kir 3.4 (˜30 pg each). Approximately 30 pools were assayed before these primary screens were halted. Injected oocytes were incubated at 17° C. for over 80 hours prior to electrophysiological recordings. Recordings were performed by two-electrode voltage clamping using an Axoclamp-2A amplifier (Axon Instruments) or a Dagan CA-1 amplifier (Dagan Corp.). Data acquisition and analysis were performed using pCLAMP software (Axon Instruments). Membrane potential was held at −80 mV. For trials involving GIRK, oocytes were first perfused with Na-MBSH (88 mM NaCl, 1 mM KCl, 2.4 mM NaHCO3, 10 mM Hepes, pH 7.5, 0.82 mM MgSO4[7H2O], 0.33 mM Ca[NO3]2[4H2O], 0.41 mM CaCl2[2H2O]), and then switched into K-MBSH, which contains elevated K+ (88 mM KCl, 1 mM NaCl) until the basal current had stabilized (˜45 seconds) before challenging with agonist. Recordings on oocytes injected with receptor 5.24 in the absence of Gaolf and/or GIRK subunits were performed in Na-MBSH. Oocytes were exposed to solutions containing different agonists by switching bathing solutions with an 8 channel valve (Hamilton).

The mark [3] stands for this setting: read-out: Ki (binding affinity), displacement of 3H-L-arginine from membranes of HEK 293 cells expressing receptor 5.24.
Where [4] appears, read: 3H-arginine displacement, read-out: Ki.
Where [5] appears, read: displacement of 3H-L-arginine from membranes of HEK 293 cells expressing receptor 5.24, read-out: Ki (binding affinity).

Take `N=C(N)NCCCCN` [Agmatine]: on receptor 5.24 [1], the Ki (usually the dissociation constant of the complex between target and ligand, obtained from inhibition or displacement) was above 1000 µM; the “binding to receptor 5.24, in words” value is recorded as “displaces 3H-arginine very poorly; also recorded: essentially no binding”. Moreover, the Ki on receptor 5.24 [1] (setting [3]) was above 1000 µM.
As for `NCCCCCN` [Cadaverine], the Ki at receptor 5.24 [1] (setting [4]) and at receptor 5.24 [1] (setting [5]) was above 1000 µM throughout. For the same compound, at receptor 5.24 [1], the “binding to receptor 5.24, in words” value is listed as “essentially no binding”.
On to `NCCC(=O)N[C@@H](Cc1cnc[nH]1)C(=O)O` [Carnosine], for which the inhibition constant Ki on receptor 5.24 [1] (setting [4]) and at receptor 5.24 [1] (setting [5]) was above 1000 µM each time. Moreover, at receptor 5.24 [1], the “binding to receptor 5.24, in words” value was “no specific interactions”.
Consider `C[C@H](N)C(=O)O` [L-Alanine], for which the “activation of receptor 5.24 (evoked currents), in words” value (from here on “activation”) on receptor 5.24 [2] was “smaller responses”. Also, the Ki at receptor 5.24 [1] (setting [5]) came out at 5.6 µM.
For `NC(=O)C[C@H](N)C(=O)O` [L-Asparagine], the Ki at receptor 5.24 [1] (setting [5]) was 2.1 µM.
`N[C@@H](CC(=O)O)C(=O)O` [L-Aspartate]: the Ki at receptor 5.24 [1] was determined as 27 µM.
Take `NC(=O)NCCC[C@H](N)C(=O)O` [L-Citruline]: the Ki at receptor 5.24 [1] (setting [5]) worked out at 0.96 µM.
Still for that read-out and setting: with `N[C@@H](CS)C(=O)O` [L-Cysteine] the figure was 0.53 µM.
Take `N[C@@H](CCC(=O)O)C(=O)O` [L-Glutamate]: the “activation” value is on record as “does not appear to activate” on receptor 5.24 [2] (listed as Glutamate) and “little or no response; also recorded: not activated” on receptor 5.24 [2] (listed as glutamate). Also, the “fold decrease in affinity / displacement relative to arginine or lysine” value on receptor 5.24 [1] (3H-arginine displacement) was “approximately 80 fold”. The Ki at receptor 5.24 [1] (setting [5]) was determined as 6.7 µM.
In the case of `NC(=O)CC[C@H](N)C(=O)O` [L-Glutamine], the inhibition constant Ki on receptor 5.24 [1] (setting [5]) amounted to 0.32 µM.
On the same count and under the same terms, with `NCC(=O)O` [L-Glycine] the figure was 3.9 µM.
In the case of `N[C@@H](Cc1c[nH]cn1)C(=O)O` [L-Histidine], the “activation” value on receptor 5.24 [2] was “little or no response”. On receptor 5.24 [1], the affinity, expressed as Ki, was 13 µM and the “binding to receptor 5.24, in words” value was “low affinities”.
In the case of `N=C(N)NCCCC[C@H](N)C(=O)O` [L-Homoarginine], the affinity on receptor 5.24 [1], expressed as Ki, was 1.63 µM.
Regarding `CC[C@H](C)[C@H](N)C(=O)O` [L-Isoleucine], the “activation” value on receptor 5.24 [2] is on record as “smaller responses”. Further, the inhibitory constant (Ki) at receptor 5.24 [1] (setting [5]) worked out at 2.2 µM.
In the case of `CC(C)C[C@H](N)C(=O)O` [L-Leucine], the Ki at receptor 5.24 [1] (setting [5]) stood at 4.4 µM.
Turning to `CSCC[C@H](N)C(=O)O` [L-Methionine], the “activation” value on receptor 5.24 [2] is “smaller responses”. Besides, on receptor 5.24 [1] (setting [5]), the inhibitory constant (Ki) came out at 0.81 µM.
In the case of `COC(=O)[C@@H](N)CCCNC(=N)N[N+](=O)[O-]` [L-NAME], the “binding to receptor 5.24, in words” value on receptor 5.24 [1] was “modest affinity”. The Ki at receptor 5.24 [1] (setting [5]) was found to be 1.02 µM.
With `NCCC[C@H](N)C(=O)O` [L-Ornithine], the Ki on receptor 5.24 [1] (setting [4]) is 1 µM.
For the compound `N[C@@H](Cc1ccccc1)C(=O)O` [L-Phenylalanine], on receptor 5.24 [2], the “activation” value is listed as “little or no response”. The “binding to receptor 5.24, in words” value at receptor 5.24 [1] is on record as “low affinities”. Further, the Ki at receptor 5.24 [1] (setting [5]) was found to be 5.8 µM.
For `O=C(O)[C@@H]1CCCN1` [L-Proline], the “binding to receptor 5.24, in words” value at receptor 5.24 [1] is “low affinities”. In addition, on receptor 5.24 [1] (setting [5]), the Ki is 58 µM.
As for `C[C@@H](O)[C@H](N)C(=O)O` [L-Threonine], the “activation” value at receptor 5.24 [2] is recorded as “smaller responses”. Further, the Ki on receptor 5.24 [1] (setting [5]) stood at 3.2 µM.
For the compound `N[C@@H](Cc1c[nH]c2ccccc12)C(=O)O` [L-Tryptophan], on receptor 5.24 [2], the “activation” value is recorded as “little or no response”. At receptor 5.24 [1], the “binding to receptor 5.24, in words” value was “low affinities”. In addition, the Ki on receptor 5.24 [1] (setting [5]) came out at 4.1 µM.
As for `N[C@@H](Cc1ccc(O)cc1)C(=O)O` [L-Tyrosine], the “activation” value at receptor 5.24 [2] was “little or no response”. Also, at receptor 5.24 [1], the Ki is 16 µM and the “binding to receptor 5.24, in words” value is recorded as “low affinities”.
Regarding `CC(C)[C@H](N)C(=O)O` [L-Valine], the Ki at receptor 5.24 [1] (setting [5]) was 6.2 µM.
In the case of `NCCCCN` [Putrescine], at receptor 5.24 [1] (setting [5]), the Ki is above 1000 µM.
`NCCS(=O)(=O)O` [Taurine]: the Ki on receptor 5.24 [1] (setting [4]) and at receptor 5.24 [1] (setting [5]) was above 1000 µM each time. In addition, on receptor 5.24 [1], the “binding to receptor 5.24, in words” value was “no specific interactions”.
In the case of `[Ca+2]` [calcium], the “activation” value on receptor 5.24 [2] was “not activated”.
Regarding `NCCCC(=O)O` [γ-Aminobutyric Acid (GABA), γ-Aminobutyric Acid], at receptor 5.24 [1], the Ki is above 1000 µM and the “binding to receptor 5.24, in words” value is “no specific interactions”. Further, on receptor 5.24 [1] (setting [3]), the Ki was above 1000 µM.
